Entries after “also recorded” stand apart in the source; their conditions may differ.
Experiments:
11β-HSD1 = biological target: T1, 11β-HSD1 (Homo sapiens, UniProt P28845); test: 11β-HSD1 inhibition assay (cortisone to cortisol, human liver microsomes, cortisol ELISA); assay type: biochemical; conditions: for inhibition at 10 µM: at a concentration of 10 µM; for inhibition at 10 µM / IC50: human liver microsomes; for IC50: unit printed in text (b17-b19); for selectivity 11β-HSD1 versus 11β-HSD2: compared on % inhibition at 10 µM, versus carbenoxolone
T1 construct: human liver microsomes were used as a source of the 11β‐HSD1 enzyme; tissue XenoTech Lot No.1410013; host or cells: pooled human liver microsomes, mixed gender
Description: 11β-Hydroxysteroid dehydrogenase type 1 and type 2 inhibition assays were performed as previously described. For more details, see the Supplementary Materials.
Detailed protocols of enzyme inhibition assays
1. Inhibition of 11β‐HSD Assays […]
tetrasodium salt, phosphate buffer powder, (Sigma‐Aldrich, Poznań, Poland), Pooled human liver microsomes, mixed gender, 1 mL, 20 mg/mL Lot No.1410013 ‐ XenoTech, Cortisol Elisa Ref DkO001 Lot […]
No. L211008799 – (Cloud‐Clone Corp., Wuhan, China), PBS Lot No. H161008 (Pan Biotech, Aidenbach, […]
liver microsomes were used as a source of the 11β‐HSD1 enzyme. Standard 96‐well microplates were filled with a reagent mixture: cortisone/NADPH (20 μ l, to obtain a final concentration of 200 nM / 2 μ M), […]
water. The resulting solution (final volume 100 μ l) was incubated for 2.5 h at 37°C. To stop the reaction, 10 μl of a 100 μM solution of 18β‐glycyrrhetinic acid in PBS was added. Cortisol levels resulting from the reaction were measured using a commercially available ELISA kit.
(§1) Solvents and reagents: 18‐beta‐glycyrrhetinic acid – (Acros Organic, Geel, Belgium), cortisone, NAD cofactor, phosphate buffer powder (Sigma‐Aldrich, Poznań, Poland), Human Kidney Microsomes, […]
(§2) ‐ (DiaMetra, Spello, Italy), Enzyme‐Linked Immunosorbent Assay (ELISA) Kit for 11‐Beta‐ Hydroxysteroid Dehydrogenase Type 2 Lot No. L191113457 ‐ (Cloud‐Clone Corp., Wuhan, China), PBS Lot No. H161008 (Pan Biotech, Aidenbach, Germany). […]
(§3) kidney microsomes were used as a source of the 11β‐HSD2 enzyme. Standard 96‐well microplates were filled with a reagent mixture: cortisol/NAD+ (20 μL, to obtain a final concentration of 200 nM / 2 μM), […]
(§4) The resulting solution (final volume of 100 μL) was incubated for 2.5 h at 37°C. […]
(§5) levels were measured using a commercially available ELISA kit.
(§6) 1.3. Determination of IC50 […]
(§7) conditions described in the sections above. Analogous assays without added inhibitors were performed as controls. The IC₅₀ value, defined as the concentration of inhibitor causing a 50% reduction in cortisol or cortisone, was read directly from the graph.

11β-HSD2 = biological target: T2, 11β-HSD2 (Homo sapiens, UniProt P80365); test: 11β-HSD2 inhibition assay (cortisol to cortisone, human kidney microsomes, cortisol ELISA); assay type: biochemical; conditions: at a concentration of 10 µM
T2 construct: human kidney microsomes were used as a source of the 11β‐HSD2 enzyme; tissue XenoTech Lot No. 1710160; host or cells: human kidney microsomes, mixed gender
T2 sequence (P80365 1-405): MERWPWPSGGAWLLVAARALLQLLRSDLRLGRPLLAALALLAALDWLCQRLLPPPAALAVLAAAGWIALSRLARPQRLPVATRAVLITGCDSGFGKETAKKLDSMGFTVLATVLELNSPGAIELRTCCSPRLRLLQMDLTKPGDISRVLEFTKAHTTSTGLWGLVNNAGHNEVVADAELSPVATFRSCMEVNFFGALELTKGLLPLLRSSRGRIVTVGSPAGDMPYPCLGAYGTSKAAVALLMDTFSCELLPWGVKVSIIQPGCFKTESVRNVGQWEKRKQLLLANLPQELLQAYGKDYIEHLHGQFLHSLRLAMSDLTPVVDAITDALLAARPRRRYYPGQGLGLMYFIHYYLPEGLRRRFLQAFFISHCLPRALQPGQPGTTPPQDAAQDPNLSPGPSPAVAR
Description: 11β-Hydroxysteroid dehydrogenase type 1 and type 2 inhibition assays were performed as previously described. For more details, see the Supplementary Materials. […]
as §1, §2, §3, §4, §5, §6, §7

Caco-2 cells [1] = test: MTS assay, Caco-2; assay type: cell-based, human; conditions: for cell metabolic activity down-regulated to (MTS): Caco-2, 72 h, strongest effects
Description: (§8) Human fibroblast (BJ; Cat# CRL-2522), human pancreatic cancer (PANC-1; Cat# CRL-1469), human breast cancer (MDA-MB-231; Cat# HTB-26); human brain glioma cells (U-118 MG; Cat# HTB-15), human melanoma (SK-MEL-30; Cat# ACC 151) and human colon carcinoma (Caco-2; Cat# HTB-37) were purchased from ATCC (Manassas, VA, USA) or DSMZ (Braunschweig, Germany). The cell lines were routinely maintained in the medium recommended by the manufacturer—MEM, DMEM, or RPMI (Corning, New York, NY, USA) with L-glutamine, 4.5 g/L glucose, and sodium pyruvate and supplemented with 10% FBS for BJ, PANC-1, MDA-MB-231, U-118 MG, and SK-MEL-30 or 20% FBS for Caco-2. All cell lines were cultured in a humidified CO2 incubator at 37 °C. For assays, cells were seeded at a constant density of 5 × 10^3 cells/0.32 cm^2 for Caco-2, PANC-1, MDA-MB-231, U-118 MG, and SK-MEL-30 or 2 × 10^3 cells/0.32 cm^2 for BJ.
(§9) MTS assay was performed as described elsewhere. Cell lines were seeded in a 96-well plate 24 h prior to treatment. Compounds 3a–3i were tested in a 10–500 µM concentration range and treated for 72 h. Next, the MTS solution was added for 3h and incubated at 37 °C. Absorbance was measured at 590 nm and 620 nm wavelengths using a Synergy H1 microplate reader (BioTek Instruments, San Diego, CA, USA).

PANC-1 cells = test: MTS assay, PANC-1; assay type: cell-based, human; conditions: PANC-1, 72 h
Description: as §8, §9

U-118 MG cells = test: MTS assay, U-118 MG; assay type: cell-based, human; conditions: 72 h
Description: as §8, §9

Caco-2 cells [2] = test: Intracellular redox homeostasis (ROS, RNS, GSH), Caco-2; assay type: cell-based, human; conditions: Caco-2, 500 µM, 72 h
Description: as §8
(§10) Based on the MTS assay, a toxic concentration of 500 µM of each compound was selected for redox analysis for all cell lines. Cell lines were seeded at the standard density in 96-well black plates. […] The signal measurement was taken with a Synergy H1 microplate reader (BioTek Instruments, CA, USA).

SK-MEL-30 cells [3] = test: MTS assay, SK-MEL-30; assay type: cell-based, human; conditions: for cell metabolic activity down-regulated to (MTS): SK-MEL-30, 72 h, strongest effects
Description: as §8, §9

MDA-MB-231 cells = test: MTS assay, MDA-MB-231; assay type: cell-based, human; conditions: for cell metabolic activity down-regulated to (MTS): MDA-MB-231, 72 h, strongest effects
Description: as §8, §9

BJ cells = test: Intracellular redox homeostasis (ROS, RNS, GSH), BJ; assay type: cell-based, human; conditions: 500 µM, 72 h
Description: as §8, §10

SK-MEL-30 cells [4] = test: Intracellular redox homeostasis (ROS, RNS, GSH), SK-MEL-30; assay type: cell-based, human; conditions: SK-MEL-30, 500 µM, 72 h
Description: as §8, §10

T1 sequence (P28845 whole entry): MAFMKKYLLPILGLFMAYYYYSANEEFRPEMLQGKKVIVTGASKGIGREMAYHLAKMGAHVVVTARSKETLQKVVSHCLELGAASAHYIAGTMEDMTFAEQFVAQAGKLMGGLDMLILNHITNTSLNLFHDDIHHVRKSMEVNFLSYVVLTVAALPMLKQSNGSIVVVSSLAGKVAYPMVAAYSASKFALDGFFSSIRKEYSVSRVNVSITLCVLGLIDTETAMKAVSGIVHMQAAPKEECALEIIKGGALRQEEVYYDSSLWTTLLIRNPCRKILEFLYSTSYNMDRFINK

Row | SMILES | inhibition at 10 µM (11β-HSD1) [%] | IC50 (11β-HSD1) [nM] | inhibition at 10 µM (11β-HSD2) [%] | cell metabolic activity down-regulated to (MTS) (Caco-2 cells [1]) | concentration at which a decrease in cell viability is observed (Caco-2 cells [1]; Caco-2, MTS, 72 h) | highest increase in proliferation (metabolic activity, MTS) (PANC-1 cells) | selectivity 11β-HSD1 versus 11β-HSD2 (11β-HSD1) | highest increase in proliferation (metabolic activity, MTS) (U-118 MG cells) | ROS level (Caco-2 cells [2]) | cell metabolic activity down-regulated to (MTS) (SK-MEL-30 cells [3]) | cell metabolic activity down-regulated to (MTS) (MDA-MB-231 cells) | ROS level (BJ cells) | ROS level (SK-MEL-30 cells [4]) | change of cell viability / metabolic activity (Caco-2 cells [1]; Caco-2, MTS, 72 h, 10–500 µM) | concentration at which a decrease in cell viability / metabolic activity is observed (MDA-MB-231 cells; MDA-MB-231, MTS, 72 h) [µM] | change of cell viability / metabolic activity (MDA-MB-231 cells; MDA-MB-231, MTS, 72 h, 10–500 µM) | change of cell viability / metabolic activity (SK-MEL-30 cells [3]; SK-MEL-30, MTS, 72 h, 10–500 µM)
1 | CC1(C)SC(NC2CCCCC2)=NC1=O [Compound 3e, 2-(Cyclohexylamino)-5,5-dimethylthiazol-4(5H)-one] | 82.6 ± 1.79 | 300 ± 50 | 38.6 ± 5.56 | 30–54% | above 200 µM | 115–134% |  |  |  |  |  |  |  |  |  |  | 
2 | CC1SC(NC2CCCCC2)=NC1=O (stereo not drawn) [Compound 3a, 2-(Cyclohexylamino)-5-methylthiazol-4(5H)-one] | 27.5 ± 2.12 | > 10000 | 42 ± 2.5 |  | above 200 µM |  | greater inhibitory activity towards 11β-HSD2 than 11β-HSD1 | 115–134% | increase in ROS production |  |  |  |  |  |  |  | 
3 | CC(C)C1SC(NC2CCCCC2)=NC1=O (stereo not drawn) [Compound 3d, 2-(Cyclohexylamino)-5-isopropylthiazol-4(5H)-one] | 90.4 ± 2.74 | 80 ± 15 | 47 ± 1.67 |  | above 200 µM |  | greater selectivity than the standard compound |  |  | 30–54% |  |  |  |  |  |  | 
4 | O=C1N=C(NC2CCCCC2)SC1c1ccccc1 (stereo not drawn) [Compound 3f, 2-(Cyclohexylamino)-5-phenylthiazol-4(5H)-one] | 83.8 ± 4.53 | 170 ± 35 | 40 ± 8.34 |  |  | 115–134% |  |  |  | 30–54% |  |  |  |  |  |  | 
5 | O=C1N=C(NC2CCCCC2)SC12CCCCC2 [Compound 3h, 2-(Cyclohexylamino)-1-thia-3-azaspiro [4.5]dec-2-en-4-one] | 94 ± 2.35 | 40 ± 4 | 45.6 ± 5.28 | 30–54% |  | 115–134% | greater selectivity than the standard compound; also recorded: better activity and selectivity than carbenoxolone |  |  |  | 30–54% | increase in ROS |  |  |  |  | 
6 | CCCC1SC(NC2CCCCC2)=NC1=O (stereo not drawn) [Compound 3c, 2-(Cyclohexylamino)-5-propylthiazol-4(5H)-one] | 85.7 ± 4.43 | 400 ± 5 | 47.1 ± 0.82 |  |  |  |  |  |  | 30–54% | 30–54% |  |  |  |  |  | 
7 | O=C1N=C(NC2CCCCC2)SC12CCC2 [Compound 3i, 6-(Cyclohexylamino)-5-thia-7-azaspiro [3.4]oct-6-en-8-one] | 87.3 ± 0.99 | 90 ± 16 | 51 ± 0.73 | 30–54% | above 200 µM |  |  | 115–134% |  |  | 30–54% | increase in ROS |  |  |  |  | 
8 | CCC1SC(NC2CCCCC2)=NC1=O (stereo not drawn) [Compound 3b, 2-(Cyclohexylamino)-5-ethylthiazol-4(5H)-one] | 68.5 ± 4.28 | 570 ± 60 | 38.3 ± 9.96 | 30–54% | above 200 µM |  |  |  | increase in ROS production |  | 30–54% |  | increase in ROS production |  |  |  | 
9 | O=C1N=C(NC2CCCCC2)SC1c1ccc(Br)cc1 (stereo not drawn) [Compound 3g, 5-(4-Bromophenyl)-2-(cyclohexylamino)thiazol-4(5H)-one] | 90.2 ± 1.59 | 70 ± 8 | 47.2 ± 1.17 | 30–54% | 1 µM |  | greater selectivity than the standard compound | 115–134% |  | 30–54% | 30–54% |  |  | vigorous inhibitory activity | 75 | vigorous inhibitory activity | vigorous inhibitory activity
